Results as given in patent publication US20230255966A1, “A COMBINATION OF A CBP/P300 BROMODOMAIN INHIBITOR AND AN EGFR INHIBITOR FOR USE IN TREATING EGFR-MUTANT NSCLC” (TOLREMO THERAPEUTICS AG, priority 2020, published 2023).

How the values were obtained:
[1] = test system: HCC827 cells; assay: Cell counting by nuclear fluorescent staining (Hoechst33342); type: cell-based
Description: Several plates were seeded, as for each time point of cell counting one plate was fixed and stained for analysis. […] Cell cultivation was continued until time of fixation and analysis for each plate. For extended time-points, medium and drugs were replenished twice weekly.
At the given time plates were washed 3 times with PBS and cells fixed with 80 μl 4% PFA for 10 min, RT. After 3 wash steps with PBS cells were stained with 10 μg/ml Hoechst33342 (Thermo Scientific H12492) in 100 μl PBS for 2 h, RT, dark. After 3× PBS washing-steps, Hoechst33342 signals were acquired on in an automated imaging mode using a Zeiss Apotome with motorized X/Y stage and a 5× objective. Image analysis and determination of Hoechst33342 spots (nuclei) was done using ImageJ. Number of nuclei was plotted as function of time using GraphPad Prism.

[2] = biological target: T1, CBP bromodomain (Homo sapiens, UniProt Q92793); assay: CBP bromodomain binding assay (TR-FRET); settings: class symbols
T1 construct: purchased Cayman chemicals 600850
T1 sequence (Q92793 1085-1192 limits assumed): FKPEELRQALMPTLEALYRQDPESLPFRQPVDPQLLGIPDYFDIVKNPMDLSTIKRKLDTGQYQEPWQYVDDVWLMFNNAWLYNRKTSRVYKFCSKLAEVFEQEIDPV
Description: Compounds solutions of 10 mM in DMSO were pre-diluted in DSMO to 25× stock solutions in DMSO. These were then diluted down to 4× in Assay buffer. A dilution series in Assay buffer was performed keeping the DMSO concentration stable. 5 μl compound in assay buffer was transferred into the assay plate (provided by assay kit) and the TR-FRET assay Cayman chemicals; 600850) was performed using the manufactor's instructions. […] The TR-FRET ratio was calculated by dividing 670 nm emission by 620 nm emission.

[3] = test system: NCI-H1975 xenografts; assay: NCI-H1975 xenograft tumor growth; type: in vivo, NMRI-Nude mice
Description: Tumor volume was measured using a manual caliper two to three times a week. The tumor volume was calculated using the formula: lager tumor diameter x square of the smaller tumor diameter divided by 2. Based on a linear fit of the mean tumor volumes the slopes of the curves were compared by regression analysis (two-tailed).
(§1) The response was determined by comparing tumor volume change at time t to its baseline: % tumor volume change=ΔVolt=100%×((Vt−Vinitial)/Vinitial). The Best Response was the minimum value of ΔVolt for t≥10 d. For each time t, the average of ΔVolt from t=0 to t was also calculated. The BestAvgResponse is defined as the minimum value of this average for t≥10 d. This metric captures a combination of speed, strength and durability of response into a single value. […] Mice that were sacrificed because of an adverse event before they had completed 14 d on trial were removed from the data set.
as §1, with “ΔVolt for t≥6 d. For” for “ΔVolt for t≥10 d. For”

[4] = test system: HCC827 cells; assay: Label-free determination of cell proliferation (CELIGO); type: cell-based; settings: HCC827, combined with 100 nM osimertinib, 21 days (FIG. 9)
[5] = biological target: T2, BRD1 (Homo sapiens, UniProt O95696); assay: BROMOscan BromoKdMAX; type: binding
T2 construct: T7 phage strains displaying bromodomains were grown in parallel; purchased DiscoverX; host or cells: T7 phage in E. coli host derived from BL21
T2 sequence (O95696 562-666 limits assumed): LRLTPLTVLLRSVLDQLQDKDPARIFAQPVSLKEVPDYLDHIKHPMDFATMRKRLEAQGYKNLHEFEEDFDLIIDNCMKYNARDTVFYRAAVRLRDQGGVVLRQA
Description: (§2) A BromoKdMAX was performed at DiscoverX.
(§3) The assay principle is the following: BROMOscan™ is a novel industry leading platform for identifying small molecule bromodomain inhibitors. Based on proven KINOMEscan™ technology, BRO-MOscan™ employs a proprietary ligand binding site-directed competition assay to quantitatively measure interactions between test compounds and bromodomains. This robust and reliable assay panel is suitable for high throughput screening and delivers quantitative ligand binding data to facilitate the identification and optimization of potent and selective small molecule bromodomain inhibitors.
(§4) The assay was conducted as follows: For the Bromodomain assays, T7 phage strains displaying bromodomains were grown in parallel in 24-well blocks in an E. coli host derived from the BL21 strain. E. coli were grown to log-phase and infected with T7 phage from a frozen stock (multiplicity of infection=0.4) and incubated with shaking at 32° C. until lysis (90-150 minutes). The lysates were centrifuged (5,000×g) and filtered (0.2 μm) to remove cell debris. […] The liganded beads were blocked with excess biotin and washed with blocking buffer (SeaBlock (Pierce), 1% BSA, 0.05% Tween 20, 1 mM DTT) to remove unbound ligand and to reduce non-specific phage binding. […] Test compounds were prepared as 1000× stocks in 100% DMSO. Kds were determined using an 11-point 3-fold compound dilution series with one DMSO control point. […] The compounds were then diluted directly into the assays such that the final concentration of DMSO was 0.09%. All reactions performed in polypropylene 384-well plates. Each was a final volume of 0.02 ml. […] The bromodomain concentration in the eluates was measured by qPCR.

[6] = biological target: T3, BRPF3 (Homo sapiens, UniProt Q9ULD4); assay: BROMOscan BromoKdMAX; type: binding
T3 construct: T7 phage strains displaying bromodomains were grown in parallel; purchased DiscoverX; host or cells: T7 phage in E. coli host derived from BL21
T3 sequence (Q9ULD4 589-693 limits assumed): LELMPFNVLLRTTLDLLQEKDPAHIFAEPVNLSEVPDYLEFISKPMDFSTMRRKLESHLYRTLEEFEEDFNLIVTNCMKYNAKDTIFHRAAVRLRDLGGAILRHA
Description: as §2, §3, §4

[7] = biological target: T4, PBRM1(2) (Homo sapiens, UniProt Q86U86); assay: BROMOscan BromoKdMAX; type: binding
T4 construct: T7 phage strains displaying bromodomains were grown in parallel; purchased DiscoverX (BROMOscan / BromoKdMAX service); host or cells: T7 phage in E. coli host derived from BL21
T4 sequence (Q86U86 177-287 limits assumed): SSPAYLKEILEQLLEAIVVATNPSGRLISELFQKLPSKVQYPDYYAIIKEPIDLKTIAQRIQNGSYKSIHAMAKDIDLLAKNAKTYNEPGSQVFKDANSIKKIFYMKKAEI
Description: as §2, §3, §4

[8] = biological target: T5, GCN5L2 (Homo sapiens, UniProt Q92830); assay: BROMOscan BromoKdMAX; type: binding
T5 construct: T7 phage strains displaying bromodomains were grown in parallel; purchased DiscoverX (BROMOscan / BromoKdMAX service); host or cells: T7 phage in E. coli host derived from BL21
T5 sequence (Q92830 728-832 limits assumed): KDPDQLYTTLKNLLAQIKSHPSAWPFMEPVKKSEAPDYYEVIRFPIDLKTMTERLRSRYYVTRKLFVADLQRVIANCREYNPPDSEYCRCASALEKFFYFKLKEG
Description: as §2, §3, §4

[9] = biological target: T6, SMARCA2 (Homo sapiens, UniProt P51531); assay: BROMOscan BromoKdMAX; type: binding
T6 construct: T7 phage strains displaying bromodomains were grown in parallel; purchased DiscoverX (BROMOscan / BromoKdMAX service); host or cells: T7 phage in E. coli host derived from BL21
T6 sequence (P51531 1378-1506 limits assumed): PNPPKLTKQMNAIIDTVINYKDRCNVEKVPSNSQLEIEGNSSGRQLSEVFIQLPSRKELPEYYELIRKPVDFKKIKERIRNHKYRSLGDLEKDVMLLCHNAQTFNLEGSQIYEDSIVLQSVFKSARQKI
Description: as §2, §3, §4

[10] = biological target: T7, TRIM33(PHD, Bromo.) (Homo sapiens, UniProt Q9UPN9); assay: BROMOscan BromoKdMAX; type: binding
T7 construct: TRIM33(PHD, Bromo.)
T7 sequence (Q9UPN9 whole entry): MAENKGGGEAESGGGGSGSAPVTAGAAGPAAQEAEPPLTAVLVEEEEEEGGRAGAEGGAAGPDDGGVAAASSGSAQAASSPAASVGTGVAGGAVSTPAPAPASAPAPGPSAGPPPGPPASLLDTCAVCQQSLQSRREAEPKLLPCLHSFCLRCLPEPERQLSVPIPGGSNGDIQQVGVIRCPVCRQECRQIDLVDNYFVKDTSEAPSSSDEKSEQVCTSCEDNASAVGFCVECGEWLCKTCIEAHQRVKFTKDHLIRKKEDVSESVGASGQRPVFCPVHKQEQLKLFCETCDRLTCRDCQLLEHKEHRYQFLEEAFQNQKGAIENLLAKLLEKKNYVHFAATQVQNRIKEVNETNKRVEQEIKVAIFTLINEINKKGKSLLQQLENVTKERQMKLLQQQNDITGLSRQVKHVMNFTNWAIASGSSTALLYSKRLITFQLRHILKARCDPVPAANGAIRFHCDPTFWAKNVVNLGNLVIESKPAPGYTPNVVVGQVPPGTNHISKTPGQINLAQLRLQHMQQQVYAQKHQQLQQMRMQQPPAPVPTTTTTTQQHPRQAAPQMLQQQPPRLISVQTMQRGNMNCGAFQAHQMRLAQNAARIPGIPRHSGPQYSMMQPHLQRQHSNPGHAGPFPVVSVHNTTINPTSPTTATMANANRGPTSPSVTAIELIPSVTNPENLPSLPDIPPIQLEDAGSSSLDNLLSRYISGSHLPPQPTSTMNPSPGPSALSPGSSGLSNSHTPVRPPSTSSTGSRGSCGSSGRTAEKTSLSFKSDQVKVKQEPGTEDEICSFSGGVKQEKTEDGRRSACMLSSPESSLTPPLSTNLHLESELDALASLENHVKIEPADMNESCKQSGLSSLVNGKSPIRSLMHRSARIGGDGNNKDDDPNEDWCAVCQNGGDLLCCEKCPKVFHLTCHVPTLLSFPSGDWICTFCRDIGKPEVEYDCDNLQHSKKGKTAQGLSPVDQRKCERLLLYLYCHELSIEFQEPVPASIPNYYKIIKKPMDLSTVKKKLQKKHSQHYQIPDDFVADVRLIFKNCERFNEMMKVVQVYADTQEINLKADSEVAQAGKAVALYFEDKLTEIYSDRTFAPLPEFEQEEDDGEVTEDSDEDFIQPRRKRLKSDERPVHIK
Description: as §2, §3, §4

[11] = biological target: T8, FALZ (Homo sapiens, UniProt Q12830); assay: BROMOscan BromoKdMAX; type: binding
T8 construct: T7 phage strains displaying bromodomains were grown in parallel; purchased DiscoverX (BROMOscan / BromoKdMAX service); host or cells: T7 phage in E. coli host derived from BL21
Description: as §2, §3, §4

[12] = biological target: T9, BAZ2A (Homo sapiens, UniProt Q9UIF9); assay: BROMOscan BromoKdMAX; type: binding
T9 construct: T7 phage strains displaying bromodomains were grown in parallel; purchased DiscoverX; host or cells: T7 phage in E. coli host derived from BL21
T9 sequence (Q9UIF9 1793-1897 limits assumed): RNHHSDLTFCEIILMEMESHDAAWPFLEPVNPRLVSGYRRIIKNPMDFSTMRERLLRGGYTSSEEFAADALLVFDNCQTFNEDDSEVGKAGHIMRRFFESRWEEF
Description: as §2, §3, §4

[13] = biological target: T10, ATAD2A (Homo sapiens, UniProt Q6PL18); assay: BROMOscan BromoKdMAX; type: binding
T10 construct: T7 phage strains displaying bromodomains were grown in parallel; purchased DiscoverX; host or cells: T7 phage in E. coli host derived from BL21
T10 sequence (Q6PL18 980-1092 limits assumed): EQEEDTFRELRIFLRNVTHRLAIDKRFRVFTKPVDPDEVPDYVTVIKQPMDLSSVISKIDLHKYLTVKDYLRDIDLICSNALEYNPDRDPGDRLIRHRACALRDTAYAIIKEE
Description: as §2, §3, §4

[14] = biological target: T11, SMARCA4 (Homo sapiens, UniProt P51532); assay: BROMOscan BromoKdMAX; type: binding
T11 construct: T7 phage strains displaying bromodomains were grown in parallel; purchased DiscoverX (BROMOscan / BromoKdMAX service); host or cells: T7 phage in E. coli host derived from BL21
T11 sequence (P51532 1453-1564 limits assumed): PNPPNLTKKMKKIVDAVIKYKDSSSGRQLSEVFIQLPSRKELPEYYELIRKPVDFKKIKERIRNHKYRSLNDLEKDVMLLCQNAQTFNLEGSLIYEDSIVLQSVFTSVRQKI
Description: as §2, §3, §4

[15] = biological target: T12, BAZ2B (Homo sapiens, UniProt Q9UIF8); assay: BROMOscan BromoKdMAX; type: binding
T12 construct: T7 phage strains displaying bromodomains were grown in parallel; purchased DiscoverX; host or cells: T7 phage in E. coli host derived from BL21
T12 sequence (Q9UIF8 2060-2164 limits assumed): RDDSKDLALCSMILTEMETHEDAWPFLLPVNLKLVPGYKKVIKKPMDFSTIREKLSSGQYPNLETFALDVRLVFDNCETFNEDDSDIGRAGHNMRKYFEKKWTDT
Description: as §2, §3, §4

[16] = biological target: T13, PBRM1(5) (Homo sapiens, UniProt Q86U86); assay: BROMOscan BromoKdMAX; type: binding
T13 construct: T7 phage strains displaying bromodomains were grown in parallel; purchased DiscoverX (BROMOscan / BromoKdMAX service); host or cells: T7 phage in E. coli host derived from BL21
T13 sequence (Q86U86 653-763 limits assumed): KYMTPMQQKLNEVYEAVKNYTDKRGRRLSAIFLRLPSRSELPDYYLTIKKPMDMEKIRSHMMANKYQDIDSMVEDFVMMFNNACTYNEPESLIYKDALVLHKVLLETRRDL
Description: as §2, §3, §4

[17] = biological target: T14, ATAD2B (Homo sapiens, UniProt Q9ULI0); assay: BROMOscan BromoKdMAX; type: binding
T14 construct: T7 phage strains displaying bromodomains were grown in parallel; purchased DiscoverX; host or cells: T7 phage in E. coli host derived from BL21
T14 sequence (Q9ULI0 951-1066 limits assumed): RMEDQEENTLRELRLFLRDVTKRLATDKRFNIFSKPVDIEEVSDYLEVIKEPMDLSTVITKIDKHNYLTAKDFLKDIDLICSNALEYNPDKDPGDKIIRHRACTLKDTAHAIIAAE
Description: as §2, §3, §4

[18] = 2 mg/kg osimertinib in combination with 90 mg/kg Compound C

## CC(=O)N1C[C@H](c2nc(Nc3ccnc(C)c3)cc(-c3cccnc3)n2)CC[C@@H]1C [Compound 00071, 1-((2S,5R)-2-methyl-5-(4-((2-methylpyridin-4-yl)amino)-6-(pyridin-3-yl)pyrimidin-2-yl)piperidin-1-yl)ethan-1-one]
[1]; absence of EGFR inhibitor (FIG. 3 left)
  Effect on cell proliferation as single agent: absence of an anti-proliferative effect
[1]; in presence of 300 nM Gefitinib (FIG. 3)
  Anti-proliferative activity / re-growth in presence of Gefitinib: potentiate the effect of the EGFR inhibitor
[2]
  EC50: < 0.2 µM

## CC(=O)N1C[C@H](c2nc(Nc3cccc(-c4cn(C)nn4)c3)cc(-c3cnccn3)n2)CC[C@@H]1C [Compound C, 1-((2S,5R)-2-methyl-5-(4-((3-(1-methyl-1H-1,2,3-triazol-4-yl)phenyl)amino)-6-(pyrazin-2-yl)pyrimidin-2-yl)piperidin-1-yl)ethan-1-one]
[3]; [18]
  Response to therapy: response to therapy is significantly increased
  Slope of linear regression fit of mean tumor volumes over time: −7.4
[3]; 2 mg/kg osimertinib in combination with 90 mg/kg Compound C, daily, orally
  Tumor growth (slopes of mean tumor volume curves) versus osimertinib group: significant difference
[3]; 90 mg/kg Compound C single agent, daily, orally
  Tumor growth (slopes of mean tumor volume curves) versus vehicle: No significant difference
[4]
  Development of drug resistance / re-growth: prevent the development of drug resistance
[5]
  Kd: > 10 µM
[6]
  Kd: > 10 µM
[7]
  Kd: > 10 µM
[8]
  Kd: > 10 µM
[9]
  Kd: > 10 µM
[10]
  Kd: > 10 µM
[11]
  Kd: > 10 µM
[12]
  Kd: > 10 µM
[13]
  Kd: > 10 µM
[14]
  Kd: > 10 µM
[15]
  Kd: > 10 µM
[16]
  Kd: > 10 µM
[17]
  Kd: > 10 µM
